# Results: patent publication US20220162548A1, “PRODUCING ISOTHIOCYANATES FROM CALLUS SUSPENSION CULTURES” (PERPETUUM CROPSCIENCE BVBA, priority 2019, published 2022)
# System: NON-GMO Impala F1 Cabbage (Brassica oleracea L. var. capitata) callus cultures
# Experiment: Elicitation of callus cultures, benzyl isothiocyanate accumulation and callus weight
# Assay type: cell-based
# Details: for Concentration of benzyl isothiocyanate / Dry weight / Fresh weight: four weeks of culture
# Procedure: 10 g of calli (fresh weight/vessel) was transferred to the same medium composition in addition to different concentrations of chitosan (200, 400 and 600 mg/L) and salicylic acid (10, 20 and 40 mg/L) as biotic elicitors, in addition to the control treatment without elicitors. After calli was collected, the fresh and dry weights were determined. Dry weight was determined after drying the calli at 45° C. in an oven until a constant weight was obtained. Benzyl Isothiocyanate concentration was also recorded with each treatment. After four weeks of culture, data was documented.
# To determine Benzyl Isothiocyanate content, high performance liquid chromatography (HPLC) was performed. The extraction of Benzyl Isothiocyanate was carried out from calli and cells from Erlenmeyer flask culture and single-use ReadyToProcess WAVE Cellbag bioreactor experiments. Samples were homogenized using a glass mortar and pestle (MilliporeSigma, Belgium) containing 70:30 (v:v) MeOH:sterilized water. Extracts were then transferred to glass stoppered Erlenmeyer flasks (DWK Life Sciences) and conditioned in a thermostatic bath (Fisherscientific, Belgium) under constant agitation. For 30 minutes the extraction was carried out at 70° C. and then filtered on Invitrolon PVDF membranes (Polyvinylidene Fluoride) ([…], ThermoFisher Scientific, Belgium) prior to HPLC injection.
# Methanolic extracts of the samples were analyzed by HPLC for Benzyl Isothiocyanate concentration using an external standard. HPLC system (Ultimate 3000 Automated System, ThermoFisher Scientific, Belgium) was coupled with UV-Vis detector (UltiMate 3000 Multiple Wavelength Detector, ThermoFisher Scientific, Belgium) and vacuum degasser (UltiMate 3000 SRD-3400 HPLC Degasser, ThermoFisher Scientific, Belgium).
# Sample injections of 20 μl were made by an autosampler (UltiMate 3000 WPS-3000 Autosampler, ThermoFisher Scientific, Belgium); the chromatographic separations were performed on C18 Reversed Phase LC columns (Accucore C18 LC Columns, ThermoFisher Scientific, Belgium). Column temperature was maintained at 30° C. and detection wavelength was 253 nm. Optimum efficiency of separation was obtained using methanol (solvent A), and acetonitrile (solvent B) (HPLC grade, Sigma Aldrich, Belgium). The flow rate was 1 ml/minute. The running time for each analysis was 60 minutes, and 10 minutes were required for column cleaning and equilibrium.
# The Benzyl Isothiocyanate concentration of the injected samples was calculated as μg/g fresh weight of sample.
# Experiments were conducted in a completely randomized design with at least 30 replicates per treatment for the calli experiment and 4 replicates for the cell suspension culture experiments. Data were subjected to statistical analysis by Analysis of Variance (Anova) programme using Duncan's multiple range test as modified by Snedecor and Cochran. Values marked with different letters were considered to be statistically different at p<0.04.
smiles,measurement,setting,value
O=C(O)c1ccccc1O [Salicylic acid],increase in Benzyl Isothiocyanate accumulation over the control treatment,salicylic acid 10 mg/L,1.7 times
same,Concentration of benzyl isothiocyanate,salicylic acid 10 mg/L,2.174 μg/g fresh weight
same,Dry weight,salicylic acid 10 mg/L,4.807 g
same,Fresh weight,salicylic acid 10 mg/L,5.985 g
same,Concentration of benzyl isothiocyanate,salicylic acid 20 mg/L,2.039 μg/g fresh weight
same,Dry weight,salicylic acid 20 mg/L,4.424 g
same,Fresh weight,salicylic acid 20 mg/L,4.981 g
same,Concentration of benzyl isothiocyanate,salicylic acid 40 mg/L,1.956 μg/g fresh weight
same,Dry weight,salicylic acid 40 mg/L,5.107 g
same,Fresh weight,salicylic acid 40 mg/L,5.509 g
